Assay [1] deals with AMPK. The assay can be described thus: AMPK enzymatic activity (Delfia technology, AMARA peptide substrate). The format is biochemical. The settings on record: AMP at 200 μM as reference. How it is done:
The following biological test allows the determination of the efficacy of compounds of formula (I) onto AMPK protein.
AMPK enzyme activities were assayed by using a Delfia technology. AMPK enzyme activities were carried out in microtiter plates in the presence of a synthetic peptide substrate (AMARAASAAALARRR, the “AMARA” peptide) and activators in serial dilutions. Reactions were initiated by the addition of AMPK. Enzyme activity was assayed by using an anti-phosphoserine antibody to measure the quantity of phosphate incorporated into the AMARAA.
N°: Number of the molecule
Activity: Ratio between the % of control (basal activity) of compound of formula (1) at 30 μM and the % of control (basal activity) of AMP (natural substrate) at 200 μM.

The subject of assay [2] is ob/ob and db/db mice. Conditions: 8 day administration; cited from earlier work.
Assay [3] concerns Ob/ob mice. The assay can be described thus: In vivo control of glycemia in ob/ob mice. The settings on record: oral BID during 8 days, 150 mg/kg, compared to an animal group control. The protocol: The following biological test allows the determination of the efficacy of compounds of formula (I) onto the control of glycemia on a pharmaceutical animal model.
All experiments on animals were carried out in accordance with the European animal care guidelines (ETS123).
Ob/ob mice from CERJ (53940 Le Genest Saint Isle, France) were treated orally with compounds of formula (1) BID during 8 days. At that time, a blood sample was collected and glucose concentration was determined using ABX diagnostic kit.
Results are given as a percentage of glycemia variation compared to an animal group control.

On to `[Na+].[Na+].[Na+].[O-]c1nc2sc(Cl)c(-c3ccc4c(c3[O-])CCCC4)c2c([O-])c1-c1ccccc1` [Compound 16, trisodium 2-chloro-3-(5-oxidotetralin-6-yl)-5-phenyl-thieno[2,3-b]pyridine-4,6-diolate], for which, in assay [1], the “Activity: Ratio between the % of control (basal activity) of compound at 30 μM and the % of control (basal activity) of AMP at 200 μM” value (shortened to “Activity: Ratio between the % of control”) is “B (110%<B<130%)”.

For the compound `O=c1[nH]c2sc(Cl)c(-c3ccc4c(c3O)CCC4)c2c(O)c1-c1ccc(F)cc1` [Compound 8, 2-chloro-5-(4-fluorophenyl)-4-hydroxy-3-(4-hydroxyindan-5-yl)-7H-thieno[2,3-b]pyridin-6-one], the “Activity: Ratio between the % of control” value in assay [1] is given as “C (C>130%)”.

With `O=c1[nH]c2sc(Cl)c(-c3ccc4c(c3)CCCC4)c2c(O)c1-c1ccccc1` [Compound 17, 2-chloro-4-hydroxy-5-phenyl-3-tetralin-6-yl-7H-thieno [2,3-b]pyridin-6-one], the “Activity: Ratio between the % of control” value in assay [1] was “A (A<110%)”.

Regarding `O=c1[nH]c2sc(Cl)c(-c3ccc4c(c3)CCC4)c2c(O)c1-c1ccc(F)cc1` [Compound 4, 2-chloro-5-(4-fluorophenyl)-4-hydroxy-3-indan-5-yl-7H-thieno[2,3-b]pyridin-6-one], the “Activity: Ratio between the % of control” value in assay [1] is “B (110%<B<130%)”.

Regarding `N#Cc1cccc(-c2c(O)c3c(-c4ccc5c(c4)CCCC5)c(Cl)sc3[nH]c2=O)c1` [Compound 15, 3-(2-chloro-4-hydroxy-6-oxo-3-tetralin-6-yl-7H-thieno[2,3-b]pyridin-5-yl)benzonitrile], in assay [1], the “Activity: Ratio between the % of control” value was “B (110%<B<130%)”.

Regarding `NC(=O)c1ncn([C@@H]2O[C@H](CO)[C@@H](O)[C@H]2O)c1N` [AICAR], in assay [2], the reduces blood glucose was 35%.

For the compound `N#Cc1cccc(-c2c(O)c3c(-c4ccc5c(c4)CCC5)c(Cl)sc3[nH]c2=O)c1` [Compound 6, 3-(2-chloro-4-hydroxy-3-indan-5-yl-6-oxo-7H-thieno[2,3-b]pyridin-5-yl)benzonitrile], the “Activity: Ratio between the % of control” value in assay [1] is recorded as “C (C>130%)”.

Take `Cc1cccc(-c2c(O)c3c(-c4ccc5c(c4O)CCCC5)c(Cl)sc3[nH]c2=O)c1` [Compound 20, 2-chloro-4-hydroxy-3-(5-hydroxytetralin-6-yl)-5-(m-tolyl)-7H-thieno[2,3-b]pyridin-6-one]: the “Activity: Ratio between the % of control” value in assay [1] is “C (C>130%)”.

Turning to `COc1cccc(-c2c(O)c3c(-c4ccc5c(c4)CCC5)c(Cl)sc3[nH]c2=O)c1` [Compound 5, 2-chloro-4-hydroxy-3-indan-5-yl-5-(3-methoxyphenyl)-7H-thieno[2,3-b]pyridin-6-one], the “Activity: Ratio between the % of control” value in assay [1] was “C (C>130%)”.

Consider `O=c1[nH]c2sc(Cl)c(-c3ccc4c(c3O)CCC4)c2c(O)c1-c1ccccc1F` [Compound 11, 2-chloro-5-(2-fluorophenyl)-4-hydroxy-3-(4-hydroxyindan-5-yl)-7H-thieno[2,3-b]pyridin-6-one], for which the “Activity: Ratio between the % of control” value in assay [1] is given as “B (110%<B<130%)”.

In the case of `O=c1[nH]c2sc(Cl)c(-c3ccc4c(c3O)CCCC4)c2c(O)c1-c1ccc(F)cc1` [Compound 18, 2-chloro-5-(4-fluorophenyl)-4-hydroxy-3-(5-hydroxytetralin-6-yl)-7H-thieno[2,3-b]pyridin-6-one], the “Activity: Ratio between the % of control” value in assay [1] was “B (110%<B<130%)”.

As for `O=c1[nH]c2sc(Cl)c(-c3ccc4c(c3)CCC4)c2c(O)c1-c1ccccc1` [Compound 3, 2-chloro-4-hydroxy-3-indan-5-yl-5-phenyl-7H-thieno[2,3-b]pyridin-6-one], the “Activity: Ratio between the % of control” value in assay [1] was “B (110%<B<130%)”.

For `O=c1[nH]c2sc(Cl)c(-c3ccc4c(c3)CCC4)c2c(O)c1-c1cccnc1` [Compound 10, 2-chloro-4-hydroxy-3-indan-5-yl-5-(3-pyridyl)-7H-thieno[2,3-b]pyridin-6-one], the “Activity: Ratio between the % of control” value in assay [1] is recorded as “A (A<110%)”.

Regarding `O=c1[nH]c2sc(Cl)c(-c3ccc4c(c3O)CCCC4)c2c(O)c1-c1ccccc1` [Compound 12, 2-chloro-4-hydroxy-3-(5-hydroxytetralin-6-yl)-5-phenyl-7H-thieno[2,3-b]pyridin-6-one], the “Activity: Ratio between the % of control” value in assay [1] is on record as “C (C>130%)”. In addition, the “% glycemia variation” value in assay [3] is −27%.

`Cc1cccc(-c2c(O)c3c(-c4ccc5c(c4)CCC5)c(Cl)sc3[nH]c2=O)c1` [Compound 7, 2-chloro-4-hydroxy-3-indan-5-yl-5-(m-tolyl)-7H-thieno[2,3-b]pyridin-6-one]: the “Activity: Ratio between the % of control” value in assay [1] is listed as “C (C>130%)”.

As for `COc1ccc(-c2c(O)c3c(-c4ccc5c(c4)CCC5)c(Cl)sc3[nH]c2=O)cc1` [Compound 1, 2-chloro-4-hydroxy-3-indan-5-yl-5-(4-methoxyphenyl)-7H-thieno[2,3-b]pyridin-6-one], in assay [1], the “Activity: Ratio between the % of control” value was “C (C>130%)”.

Consider `O=c1[nH]c2sc(Cl)c(-c3ccc4c(c3O)CCC4)c2c(O)c1-c1ccccc1` [Compound 2, 2-chloro-4-hydroxy-3-(4-hydroxyindan-5-yl)-5-phenyl-7H-thieno[2,3-b]pyridin-6-one], for which the “Activity: Ratio between the % of control” value in assay [1] is recorded as “B (110%<B<130%)”.

In the case of `O=c1[nH]c2sc(Cl)c(-c3ccc4c(c3O)CCC4)c2c(O)c1-c1cccc(F)c1` [Compound 9, 2-chloro-5-(3-fluorophenyl)-4-hydroxy-3-(4-hydroxyindan-5-yl)-7H-thieno[2,3-b]pyridin-6-one], in assay [1], the “Activity: Ratio between the % of control” value was “C (C>130%)”.

As to `O=c1[nH]c2sc(Cl)c(-c3ccc4c(c3)CCCC4)c2c(O)c1-c1cccnc1` [Compound 13, 2-chloro-4-hydroxy-5-(3-pyridyl)-3-tetralin-6-yl-7H-thieno[2,3-b]pyridin-6-one], in assay [1], the “Activity: Ratio between the % of control” value is recorded as “C (C>130%)”.

Take `O=c1[nH]c2sc(Cl)c(-c3ccc4c(c3[O-])CCCC4)c2c([O-])c1-c1ccccc1.[Na+].[Na+]` [Compound 19, disodium 2-chloro-3-(5-oxidotetralin-6-yl)-6-oxo-5-phenyl-7H-thieno[2,3-b]pyridin-4-olate]: in assay [1], the “Activity: Ratio between the % of control” value is listed as “C (C>130%)”. For the same compound, the “% glycemia variation” value in assay [3] is reported as −41%.

Consider `Cc1ccc(-c2c(O)c3c(-c4ccc5c(c4O)CCCC5)c(Cl)sc3[nH]c2=O)cc1` [Compound 21, 2-chloro-4-hydroxy-3-(5-hydroxytetralin-6-yl)-5-(p-tolyl)-7H-thieno[2,3-b]pyridin-6-one], for which the “Activity: Ratio between the % of control” value in assay [1] is “C (C>130%)”.

Values taken from US9284329B2, “Thienopyridone derivatives useful as activators of AMPK” (POXEL, priority 2012, dated 2016).
